Source: patent publication US6737383B1, “Herbicidal oxadiazolidines” (priority 1999, dated 2004)

Key:
giant foxtail = assay: Test B pre/postemergence giant foxtail; type: in vivo, Setaria faberii; conditions: for Giant foxtail plant response rating: scale of 0 to 10 where 0 is no effect and 10 is complete control
Summary of the method: (§1)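 Herbicidal effect was estimated by eye on a ten-point control scale after plants spent twelve to sixteen days in a greenhouse following soil or foliar treatment. Foliar sprays targeted plants at one to four leaves; all doses were formulated in a non-phytotoxic solvent with surfactant.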

blackgrass = assay: Test B pre/postemergence blackgrass; type: in vivo, Alopecurus myosuroides; conditions: for Blackgrass plant response rating: scale of 0 to 10 where 0 is no effect and 10 is complete control
Summary of the method: as §1

wheat = assay: Test B pre/postemergence wheat; type: in vivo, Triticum aestivum; conditions: for Wheat plant response rating: scale of 0 to 10 where 0 is no effect and 10 is complete control
Summary of the method: as §1

surinam grass = assay: Test B pre/postemergence surinam grass; type: in vivo, Brachiaria decumbens; conditions: for B. signalgrass plant response rating: scale of 0 to 10 where 0 is no effect and 10 is complete control
Summary of the method: as §1

smallflower flatsedge = assay: Test B flood test smallflower flatsedge; type: in vivo, Cyperus difformis
Summary of the method: (§2)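 Flood test on plants grown to the 2-leaf stage; treated plants kept in greenhouse twelve to sixteen days, then visually rated against controls on a 0 (no effect) to 10 (complete control) scale.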

cocklebur = assay: Test B pre/postemergence cocklebur; type: in vivo, Xanthium strumarium; conditions: for Cocklebur plant response rating: scale of 0 to 10 where 0 is no effect and 10 is complete control
Summary of the method: as §1

corn = assay: Test B pre/postemergence corn; type: in vivo, Zea mays; conditions: for Corn plant response rating: scale of 0 to 10 where 0 is no effect and 10 is complete control
Summary of the method: as §1

sugar beet = assay: Test B pre/postemergence sugar beet; type: in vivo, Beta vulgaris; conditions: for Sugarbeets plant response rating: scale of 0 to 10 where 0 is no effect and 10 is complete control
Summary of the method: as §1

bamyardgrass = assay: Test B flood test barnyardgrass; type: in vivo, Echinochloa crus-galli
Summary of the method: as §2

rice = assay: Test B flood test rice; type: in vivo, Oryza sativa
Summary of the method: as §2

pigweed = assay: Test B pre/postemergence pigweed; type: in vivo, Amaranthus retroflexus; conditions: for Redroot pigweed plant response rating: scale of 0 to 10 where 0 is no effect and 10 is complete control
Summary of the method: as §1

rape = assay: Test B pre/postemergence rape; type: in vivo, Brassica napus; conditions: for Rape plant response rating: scale of 0 to 10 where 0 is no effect and 10 is complete control
Summary of the method: as §1

soybean = assay: Test B pre/postemergence soybean; type: in vivo, Glycine max; conditions: for Soybean plant response rating: scale of 0 to 10 where 0 is no effect and 10 is complete control
Summary of the method: as §1

crabgrass = assay: Test B pre/postemergence crabgrass; type: in vivo, Digitaria sanguinalis; conditions: for Crabgrass plant response rating: scale of 0 to 10 where 0 is no effect and 10 is complete control
Summary of the method: as §1

duck salad = assay: Test B flood test duck salad; type: in vivo, Heteranthera limosa
Summary of the method: as §2

purple nutsedge = assay: Test B pre/postemergence purple nutsedge; type: in vivo, Cyperus rotundus; conditions: for Nutsedge plant response rating: scale of 0 to 10 where 0 is no effect and 10 is complete control
Summary of the method: as §1

[1] = Postemergence, Rate 125 g/ha, scale 0 to 10, 0 is no effect, 10 is complete control
[2] = Postemergence, Rate 250 g/ha, scale 0 to 10, 0 is no effect, 10 is complete control
[3] = Preemergence, Rate 62 g/ha, scale 0 to 10 (0 no effect, 10 complete control)
[4] = Rate 500 g/ha, Postemergence, scale 0 to 10, 0 no effect, 10 complete control
[5] = Rate 62 g/ha, flood test species, Pre-emergence, visual evaluation after twelve to sixteen days
[6] = Rate 125 g/ha, under heading Pre-emergence, flood test species, visual evaluation after twelve to sixteen days
[7] = Rate 250 g/ha, Pre-emergence, flood-test species, scale 0 to 10, 0 is no effect, 10 is complete control
[8] = Rate 500 g/ha, Pre-emergence, flood test species, scale 0 to 10 (0 no effect, 10 complete control)

SMILES: CCOc1nc(C(F)(F)F)c(Cn2c(=O)on(C(=O)N(c3ccc(F)cc3)C(C)C)c2=O)s1 [Compound 381]
- Plant response rating, Giant foxtail (giant foxtail; [1]): 0
- Plant response rating, Giant foxtail (giant foxtail; [2]): 0
- Plant response rating, Giant foxtail (giant foxtail; [3]): 0
- Giant foxtail plant response rating (0 to 10 scale) (giant foxtail; Preemergence, Rate 125 g/ha): 0
- Giant foxtail plant response rating (giant foxtail; Preemergence, Rate 250 g/ha): 5
- Giant foxtail plant response rating (giant foxtail; Preemergence, Rate 500 g/ha): 9
- Giant foxtail plant response rating (giant foxtail; Rate 62 g/ha, Postemergence): 0
- Plant response rating, Giant foxtail (giant foxtail; [4]): 0
- Plant response rating, Blackgrass (blackgrass; [1]): 0
- Plant response rating, Blackgrass (blackgrass; [2]): 0
- Plant response rating, Blackgrass (blackgrass; [3]): 0
- Blackgrass plant response rating (0 to 10 scale) (blackgrass; Preemergence, Rate 125 g/ha): 0
- Blackgrass plant response rating (blackgrass; Preemergence, Rate 250 g/ha): 0
- Blackgrass plant response rating (blackgrass; Preemergence, Rate 500 g/ha): 2
- Blackgrass plant response rating (blackgrass; Rate 62 g/ha, Postemergence): 0
- Plant response rating, Blackgrass (blackgrass; [4]): 0
- Plant response rating, Wheat (wheat; [1]): 0
- Plant response rating, Wheat (wheat; [2]): 0
- Plant response rating, Wheat (wheat; [3]): 0
- Wheat plant response rating (0 to 10 scale) (wheat; Preemergence, Rate 125 g/ha): 0
- Wheat plant response rating (wheat; Preemergence, Rate 250 g/ha): 0
- Wheat plant response rating (wheat; Preemergence, Rate 500 g/ha): 0
- Wheat plant response rating (wheat; Rate 62 g/ha, Postemergence): 0
- Plant response rating, Wheat (wheat; [4]): 0
- Plant response rating, B. signalgrass (surinam grass; [1]): 0
- Plant response rating, B. signalgrass (surinam grass; [2]): 0
- Plant response rating, B. signalgrass (surinam grass; [3]): 0
- B. signalgrass plant response rating (0 to 10 scale, 0 is no effect, 10 is complete control) (surinam grass; Preemergence, Rate 125 g/ha): 0
- B. signalgrass plant response rating (surinam grass; Preemergence, Rate 250 g/ha): 0
- B. signalgrass plant response rating (surinam grass; Preemergence, Rate 500 g/ha): 0
- B. signalgrass plant response rating (surinam grass; Rate 62 g/ha, Postemergence): 0
- Plant response rating, B. signalgrass (surinam grass; [4]): 0
- Plant response rating, S. Flatsedge (0 to 10 scale, 0 is no effect, 10 is complete control) (smallflower flatsedge; [5]): 0
- S. Flatsedge plant response rating (0 to 10 scale, 0 is no effect, 10 is complete control) (smallflower flatsedge; [6]): 0
- S. Flatsedge plant response rating (smallflower flatsedge; [7]): 0
- S. Flatsedge plant response rating (smallflower flatsedge; [8]): 0
- Plant response rating, Cocklebur (cocklebur; [1]): 0
- Plant response rating, Cocklebur (cocklebur; [2]): 0
- Plant response rating, Cocklebur (cocklebur; [3]): 0
- Cocklebur plant response rating (0 to 10 scale) (cocklebur; Preemergence, Rate 125 g/ha): 0
- Cocklebur plant response rating (cocklebur; Preemergence, Rate 250 g/ha): 0
- Cocklebur plant response rating (cocklebur; Preemergence, Rate 500 g/ha): 0
- Cocklebur plant response rating (cocklebur; Rate 62 g/ha, Postemergence): 0
- Plant response rating, Cocklebur (cocklebur; [4]): 0
- Plant response rating, Corn (corn; [1]): 0
- Plant response rating, Corn (corn; [2]): 0
- Plant response rating, Corn (corn; [3]): 0
- Corn plant response rating (0 to 10 scale) (corn; Preemergence, Rate 125 g/ha): 0
- Corn plant response rating (corn; Preemergence, Rate 250 g/ha): 0
- Corn plant response rating (corn; Preemergence, Rate 500 g/ha): 2
- Corn plant response rating (corn; Rate 62 g/ha, Postemergence): 0
- Plant response rating, Corn (corn; [4]): 0
- Plant response rating, Sugarbeets (sugar beet; [1]): 0
- Plant response rating, Sugarbeets (sugar beet; [2]): 0
- Plant response rating, Sugarbeets (sugar beet; [3]): 0
- Sugarbeets plant response rating (0 to 10 scale) (sugar beet; Preemergence, Rate 125 g/ha): 0
- Sugarbeets plant response rating (sugar beet; Preemergence, Rate 250 g/ha): 0
- Sugarbeets plant response rating (sugar beet; Preemergence, Rate 500 g/ha): 0
- Sugarbeets plant response rating (sugar beet; Rate 62 g/ha, Postemergence): 0
- Plant response rating, Sugarbeets (sugar beet; [4]): 0
- Plant response rating, Barnyardgrass (0 to 10 scale, 0 is no effect, 10 is complete control) (bamyardgrass; [5]): 0
- Barnyardgrass plant response rating (0 to 10 scale, 0 is no effect, 10 is complete control) (bamyardgrass; [6]): 0
- Barnyardgrass plant response rating (bamyardgrass; [7]): 0
- Barnyardgrass plant response rating (bamyardgrass; [8]): 0
- Plant response rating, Rice (0 to 10 scale, 0 is no effect, 10 is complete control) (rice; [5]): 0
- Rice plant response rating (0 to 10 scale, 0 is no effect, 10 is complete control) (rice; [6]): 0
- Rice plant response rating (rice; [7]): 0
- Rice plant response rating (rice; [8]): 0
- Plant response rating, Redroot pigweed (pigweed; [1]): 0
- Plant response rating, Redroot pigweed (pigweed; [2]): 0
- Plant response rating, Redroot pigweed (pigweed; [3]): 0
- Redroot pigweed plant response rating (0 to 10 scale) (pigweed; Preemergence, Rate 125 g/ha): 0
- Redroot pigweed plant response rating (pigweed; Preemergence, Rate 250 g/ha): 0
- Redroot pigweed plant response rating (pigweed; Preemergence, Rate 500 g/ha): 0
- Redroot pigweed plant response rating (pigweed; Rate 62 g/ha, Postemergence): 0
- Plant response rating, Redroot pigweed (pigweed; [4]): 2
- Plant response rating, Rape (rape; [1]): 0
- Plant response rating, Rape (rape; [2]): 0
- Plant response rating, Rape (rape; [3]): 0
- Rape plant response rating (0 to 10 scale) (rape; Preemergence, Rate 125 g/ha): 0
- Rape plant response rating (rape; Preemergence, Rate 250 g/ha): 0
- Rape plant response rating (rape; Preemergence, Rate 500 g/ha): 0
- Rape plant response rating (rape; Rate 62 g/ha, Postemergence): 0
- Plant response rating, Rape (rape; [4]): 6
- Plant response rating, Soybean (soybean; [1]): 2
- Plant response rating, Soybean (soybean; [2]): 2
- Plant response rating, Soybean (soybean; [3]): 0
- Soybean plant response rating (0 to 10 scale) (soybean; Preemergence, Rate 125 g/ha): 0
- Soybean plant response rating (soybean; Preemergence, Rate 250 g/ha): 0
- Soybean plant response rating (soybean; Preemergence, Rate 500 g/ha): 0
- Soybean plant response rating (soybean; Rate 62 g/ha, Postemergence): 1
- Plant response rating, Soybean (soybean; [4]): 2
- Plant response rating, Crabgrass (crabgrass; [1]): 0
- Plant response rating, Crabgrass (crabgrass; [2]): 0
- Plant response rating, Crabgrass (crabgrass; [3]): 0
- Crabgrass plant response rating (0 to 10 scale) (crabgrass; Preemergence, Rate 125 g/ha): 0
- Crabgrass plant response rating (crabgrass; Preemergence, Rate 250 g/ha): 3
- Crabgrass plant response rating (crabgrass; Preemergence, Rate 500 g/ha): 9
- Crabgrass plant response rating (crabgrass; Rate 62 g/ha, Postemergence): 0
- Plant response rating, Crabgrass (crabgrass; [4]): 0
- Plant response rating, Ducksalad (0 to 10 scale, 0 is no effect, 10 is complete control) (duck salad; [5]): 0
- Ducksalad plant response rating (0 to 10 scale, 0 is no effect, 10 is complete control) (duck salad; [6]): 0
- Ducksalad plant response rating (duck salad; [7]): 0
- Ducksalad plant response rating (duck salad; [8]): 0
- Plant response rating, Nutsedge (purple nutsedge; [1]): 0
- Plant response rating, Nutsedge (purple nutsedge; [2]): 0
- Plant response rating, Nutsedge (purple nutsedge; [3]): 0
- Nutsedge plant response rating (0 to 10 scale) (purple nutsedge; Preemergence, Rate 125 g/ha): 0
- Nutsedge plant response rating (purple nutsedge; Preemergence, Rate 250 g/ha): 0
- Nutsedge plant response rating (purple nutsedge; Preemergence, Rate 500 g/ha): 0
- Nutsedge plant response rating (purple nutsedge; Rate 62 g/ha, Postemergence): 0
- Plant response rating, Nutsedge (purple nutsedge; [4]): 0
